Assay results from patent publication US6710075B2, “Therapeutic compounds and methods” (The Government of the State of Sarawak, Malaysia, priority 2000, dated 2004).
pIC50: −log10 of the molar value. Read-outs that look alike come from different tables or passages of the source.

Experiments:
[1] = test system: A498; assay: NCI in vitro anticancer drug discovery screen (sulforhodamine B); assay type: cell-based; settings: Homo sapiens, A498, renal, 48 hr
Description: (§1) (c) Testing of Compound A against a much larger cell line panel in the NCI in vitro anticancer screen (Table 7) confirmed the results described above. […] Consistent with the data in Table 5 the cytotoxic effects measured after 2 days of culture were more varied with LC50 values ranging from 10 nM for COLO-205 colon tumour cells to ˜90 μM for 786-0 renal tumour cells.

[2] = test system: SK-MEL-28; assay: as above; assay type: cell-based; settings: Homo sapiens, SK-MEL-28, melanoma, 48 hr
Description: as §1

[3] = test system: SK-MEL-2; assay: as above; assay type: cell-based; settings: Homo sapiens, SK-MEL-2, melanoma, 48 hr
Description: as §1

[4] = test system: 786-0; assay: as above; assay type: cell-based; settings: Homo sapiens; for CC50: 786-0, 48 h, read-out: LC50 (the source's name)
Description: as §1

[5] = test system: SK-OV-3; assay: as above; assay type: cell-based; settings: Homo sapiens, SK-OV-3, ovarian, 48 hr
Description: as §1

[6] = test system: OVCAR-5; assay: as above; assay type: cell-based; settings: Homo sapiens, OVCAR-5, ovarian, 48 hr
Description: as §1

[7] = test system: HT29; assay: as above; assay type: cell-based; settings: Homo sapiens, HT-29, HT29, colon, 48 hr
Description: as §1

[8] = test system: THP-1 cells; assay: Acute DNA synthesis inhibition, [14C] thymidine incorporation, THP-1 cells; assay type: cell-based, human; settings: 1 hour pretreatment + 2 hours label
[9] = read-out: LC50 (the source's name)

Compound: COC(=O)[C@H]1[C@@H](O)[C@@]2(O)c3c(OC)cc(OC4OC(C(O)CO)COC4OC)cc3O[C@@]2(c2ccc(OC)cc2)[C@@H]1c1ccccc1 (single isomer, unassigned) [Compound A]
- GI50 [1]: < 10 nM
- CC50 [1, 9]: 18600 nM
- GI50 [2]: < 10 nM
- CC50 [2, 9]: 2660 nM
- GI50 [3]: < 10 nM
- CC50 [3, 9]: 19100 nM
- CC50 ([4]; 786-0, renal, 48 hr): 91200 nM
- CC50 ([4]; 786-0 renal tumour cells, 2 days of culture): ~90000 nM
- GI50 ([4]; 786-0, renal, 48 hr): < 10 nM
- GI50 [5]: < 10 nM
- CC50 [5, 9]: 82200 nM
- GI50 [6]: < 10 nM
- CC50 [6, 9]: 1000 nM
- GI50 [7]: < 10 nM
- CC50 [7, 9]: 1000 nM
- pIC50 ([8]; Homo sapiens, THP-1, THP-1 cells): ~7.15
- pIC50 ([8]; THP-1 cells): 7.14
